Laboratory results reported in patent US8470847B2, “Derivatives of 7-alkynyl-1,8-naphthyridones, preparation method thereof and use of same in therapeutics” (Sanofi, priority 2007, dated 2013).

System: not given
Test: not given
Settings: not given

Row | Compound | melting point [°C]
1 | CNC(=O)c1c(N)n(Cc2ccccn2)c2nc(C#CC(C)(O)COC)ccc2c1=O (racemic) | 169
2 | CCn1c(N)c(C(=O)NC)c(=O)c2ccc(C#CC3(O)CCOC3)nc21 (racemic) [Compound 7, (±)-2-Amino-1-ethyl-7-[(3-hydroxytetrahydrofuran-3-yl)ethynyl]-N-methyl-4-oxo-1,4-dihydro-1,8-naphthyridine-3-carboxamide] | 253
3 | CCn1c(N)c(C(=O)NC)c(=O)c2ccc(C#CC(C)(O)c3cnccn3)nc21 (racemic) [Compound 48, (±)-2-Amino-1-ethyl-7-(3-hydroxy-3-pyrazin-2-ylbut-1-yn-1-yl)-N-methyl-4-oxo-1,4-dihydro-1,8-naphthyridine-3-carboxamide] | 271
4 | CNC(=O)c1c(N)n(C2CCCC2)c2nc(C#CC(C)(O)CO)ccc2c1=O (racemic) [Compound 53, (±)-2-Amino-1-cyclopentyl-7-(3,4-dihydroxy-3-methylbut-1-yn-1-yl)-N-methyl-4-oxo-1,4-dihydro-1,8-naphthyridine-3-carboxamide] | 210.5

Second part, the compound after the results:

Row | melting point [°C] | Compound
5 | 253 | CCn1c(N)c(C(=O)NC)c(=O)c2ccc(C#CC(O)C3CCCC3)nc21 (racemic) [Compound 10, (±)-2-Amino-7-(3-cyclopentyl-3-hydroxyprop-1-yn-1-yl)-1-ethyl-N-methyl-4-oxo-1,4-dihydro-1,8-naphthyridine-3-carboxamide]
6 | 208 | CCn1c(N)c(C(=O)NC)c(=O)c2ccc(C#CC(O)(COC)C3CC3)nc21 (racemic) [Compound 50, (±)-2-Amino-7-(3-cyclopropyl-3-hydroxy-4-methoxybut-1-yn-1-yl)-1-ethyl-N-methyl-4-oxo-1,4-dihydro-1,8-naphthyridine-3-carboxamide]

Molecular target: VEGFR-3 (Homo sapiens (Human), UniProt P35916)
Test: Measurement of the tyrosine kinase activity of VEGFR-3 by ELISA
Assay type: biochemical
Settings: VEGFR-3-TK, poly Glu-Tyr substrate, 30 μM ATP
Method: Measurement of the Tyrosine Kinase Activity of VEGFR-3 by ELISA
The enzymatic activity of VEGFR-3 is evaluated on an ELISA assay by measuring the intensity of phosphorylation of the substrate poly Glu-Tyr. […] The plate is then covered with an adhesive film and incubated overnight at 37° C. The following day, the wells are emptied by turning the plate over, washed by adding 300 μl of buffer solution (PBS+0.05% Tween 20) and dried by further incubation of the plate for 2 h at 37° C. A 90 μl reaction mixture is deposited onto each well. […] The plates are then incubated with gentle agitation at ambient temperature for 30 min. After 3 rinses with the buffer solution (300 μl/well per wash), 100 μl of anti-phosphotyrosine-HRP antibody ( 1/30 000) are added to each well and the plates are again incubated for 30 min at ambient temperature with gentle agitation. […] The total activity is evaluated by the difference in optical density obtained on samples incubated in the presence (stimulated) and in the absence (non-stimulated) of VEGFR-3.

VEGFR-3, sequence (P35916 845-1173): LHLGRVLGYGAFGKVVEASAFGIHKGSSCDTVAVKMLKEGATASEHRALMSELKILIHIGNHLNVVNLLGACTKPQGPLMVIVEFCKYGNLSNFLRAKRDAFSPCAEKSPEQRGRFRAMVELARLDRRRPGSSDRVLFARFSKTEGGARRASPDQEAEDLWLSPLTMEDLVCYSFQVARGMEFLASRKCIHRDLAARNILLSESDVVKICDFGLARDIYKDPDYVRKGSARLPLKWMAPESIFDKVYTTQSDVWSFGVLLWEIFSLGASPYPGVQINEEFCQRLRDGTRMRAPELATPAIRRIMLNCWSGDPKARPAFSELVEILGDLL

Row | Compound | IC50 [nM]
7 | CCn1c(N)c(C(=O)NC)c(=O)c2ccc(C#CC(C)(O)COC)nc21 (single isomer, unassigned; (-)) [Compound 72, (−)-2-amino-1-ethyl-7-(3-hydroxy-4-methoxy-3-methylbut-1-yn-1-yl)-N-methyl-4-oxo-1,4-dihydro-1,8-naphthyridine-3-carboxamide] | 23
